Measurements published in patent US12421282B2, “Compositions and methods for the treatment of metabolic and liver disorders” (priority 2021, dated 2025).
Like-named read-outs stand apart in the source and are kept apart here. *1 amine or outer side, *2 acyl side, *3 side chain or, on linkers, in order; H or OH if unused. Where a SMILES comes first, the peptide text is derived from it. Side-chain parts run from the residue outwards. [ ]: non-standard residue; d: D form. The star is where a group is joined. Nonadecanoyl(19-PO3H2) = O=C(CCCCCCCCCCCCCCCCCCP(=O)(O)O)*; γGlu = O=C(O)[C@H](CCC(=O)[*:2])N[*:1]; AEEA = NCCOCCOCC(=O)O; Aib = CC(C)(N)C(=O)O

Assays:
[1] = target: human recombinant GLP-1 receptor (Homo sapiens, UniProt P43220); assay: TagLite binding assay, GLP-1 receptor, without and with 2% HSA
Source text: (§1) Binding data for Compounds 15-25, for two human recombinant G protein coupled receptors, GLP-1 and GIP, was obtained using […]® binding assay and Epics Therapeutics cell lines. The binding assay was repeated in the presence of 2% human serum albumin (HSA). Compounds 16, 21, and 22 have an HSA ratio for the GLP-1 receptor of 7.1, 7.6, and 7.8, respectively. Compounds 15, 18, and 23 have an HSA ratio for the GIP receptor of 7.3, 4.3, and 6.4, respectively. A lower HSA ratio indicates greater binding affinity for the receptor than for albumin when compared to a compound with a greater HSA ratio.

[2] = set-up: species or system cynomolgus monkeys; conditions: cynomolgus monkey, in vivo, sc, 0.2 mg/kg
Experimental: Subcutaneous (SC) dosing of the compounds in a vehicle of 0.1% bovine serum albumin in phosphate buffered saline solution was performed with male cynomolgus monkeys. […] Samples were obtained at 1, 4, 8, 12, 24, 48, 72, 96, 120, 168, 192, 240 and 336 hours after the single dose was administered.

[3] = target: T1, human recombinant GIP receptor (Homo sapiens, UniProt P48546); assay: TagLite binding assay, GIP receptor, without and with 2% HSA
T1 sequence (P48546 22-466): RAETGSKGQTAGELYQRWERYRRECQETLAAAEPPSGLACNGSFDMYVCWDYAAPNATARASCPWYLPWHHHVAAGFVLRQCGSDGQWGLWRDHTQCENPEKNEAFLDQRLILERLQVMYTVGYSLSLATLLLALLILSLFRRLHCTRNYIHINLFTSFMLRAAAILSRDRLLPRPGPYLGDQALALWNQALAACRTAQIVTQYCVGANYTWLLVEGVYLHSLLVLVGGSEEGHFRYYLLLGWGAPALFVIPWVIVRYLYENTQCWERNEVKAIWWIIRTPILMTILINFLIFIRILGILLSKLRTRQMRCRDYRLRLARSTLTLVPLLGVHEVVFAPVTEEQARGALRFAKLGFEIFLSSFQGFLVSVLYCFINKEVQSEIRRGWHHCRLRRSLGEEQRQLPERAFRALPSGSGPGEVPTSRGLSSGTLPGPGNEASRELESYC
Source text: as §1

[4] = 2% human serum albumin, read-out: GLP-1 receptor IC50 2% HSA
[5] = no HSA, read-out: GLP-1 receptor IC50 No HSA
[6] = 2% human serum albumin, read-out: GIP receptor IC50 2% HSA
[7] = no HSA, read-out: GIP receptor IC50 No HSA

Chain of human recombinant GLP-1 receptor (P43220 24-463): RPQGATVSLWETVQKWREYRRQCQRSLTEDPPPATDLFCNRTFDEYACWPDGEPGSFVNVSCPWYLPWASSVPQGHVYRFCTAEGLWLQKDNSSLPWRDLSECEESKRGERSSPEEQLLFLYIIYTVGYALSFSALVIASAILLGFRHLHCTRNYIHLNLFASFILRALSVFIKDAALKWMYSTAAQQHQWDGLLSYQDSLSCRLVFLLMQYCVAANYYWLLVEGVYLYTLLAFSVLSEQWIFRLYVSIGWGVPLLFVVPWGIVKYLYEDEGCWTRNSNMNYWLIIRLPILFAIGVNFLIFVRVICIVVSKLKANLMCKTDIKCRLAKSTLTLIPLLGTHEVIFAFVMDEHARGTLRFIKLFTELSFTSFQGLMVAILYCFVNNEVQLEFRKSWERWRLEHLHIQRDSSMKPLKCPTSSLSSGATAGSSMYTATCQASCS

Row | SMILES | IC50 [1, 4] [µM] | IC50 [1, 5] [µM] | AUC(0-inf) [2] [µg·h/mL] | AUC(0-t) [2] [µg·h/mL] | Cmax [2] [ng/mL] | Tmax [2] [h] | half-life [2] [h] | mean half life longer compared to tirzepatide [2] | IC50 [3, 6] [µM] | IC50 [3, 7] [µM] | mean half life as compared to tirzepatide (in words) [2]
1 | CC[C@H](C)[C@H](NC(=O)[C@H](CC(C)C)NC(=O)[C@H](Cc1c[nH]c2ccccc12)NC(=O)[C@H](CCC(N)=O)NC(=O)[C@@H](NC(=O)[C@H](Cc1ccccc1)NC(=O)[C@H](C)NC(=O)[C@H](CCCCNC(=O)COCCOCCNC(=O)COCCOCCNC(=O)CC[C@H](NC(=O)CCCCCCCCCCCCCCCCCCP(=O)(O)O)C(=O)O)NC(=O)[C@H](CCC(N)=O)NC(=O)[C@H](C)NC(=O)[C@@H](NC(=O)[C@H](CCCCN)NC(=O)[C@H](CC(=O)O)NC(=O)[C@H](CC(C)C)NC(=O)C(C)(C)NC(=O)[C@@H](NC(=O)[C@H](CO)NC(=O)[C@H](Cc1ccc(O)cc1)NC(=O)[C@H](CC(=O)O)NC(=O)[C@H](CO)NC(=O)[C@@H](NC(=O)[C@H](Cc1ccccc1)NC(=O)[C@@H](NC(=O)CNC(=O)[C@H](CCC(=O)O)NC(=O)C(C)(C)NC(=O)[C@@H](N)Cc1ccc(O)cc1)[C@@H](C)O)[C@@H](C)O)[C@@H](C)CC)C(C)C)C(C)C)C(=O)N[C@@H](C)C(=O)NCC(=O)NCC(=O)N1CCC[C@H]1C(=O)N[C@@H](CO)C(=O)N[C@@H](CO)C(=O)NCC(=O)N[C@@H](C)C(=O)N1CCC[C@H]1C(=O)N1CCC[C@H]1C(=O)N1CCC[C@H]1C(=O)N[C@@H](CO)C(N)=O [Compound 17] (H-Y[Aib]EGTFTSDYSI[Aib]LDKVAQK([AEEA-AEEA-γGlu-Nonadecanoyl(19-PO3H2)])AFVQWLIAGGPSSGAPPPS-NH2) | 3.74 | 0.316 | 286 | 254 | 2300 | 6.67 | 102 | at least 50% | 4.17 | 0.543 | –
2 | CC[C@H](C)[C@H](NC(=O)[C@H](CC(C)C)NC(=O)[C@H](Cc1c[nH]c2ccccc12)NC(=O)[C@H](CCC(N)=O)NC(=O)[C@@H](NC(=O)[C@H](Cc1ccccc1)NC(=O)[C@H](C)NC(=O)[C@H](CCCCNC(=O)COCCOCCNC(=O)COCCOCCNC(=O)CC[C@H](NC(=O)CCCCCCCCCCCCCCCCCCP(=O)(O)O)C(=O)O)NC(=O)[C@H](CCC(N)=O)NC(=O)[C@H](C)NC(=O)[C@@H](NC(=O)[C@H](CCCCN)NC(=O)[C@H](CC(=O)O)NC(=O)[C@H](CC(C)C)NC(=O)C(C)(C)NC(=O)[C@@H](NC(=O)[C@H](CO)NC(=O)[C@H](Cc1ccc(O)cc1)NC(=O)[C@H](CC(=O)O)NC(=O)[C@H](CO)NC(=O)[C@@H](NC(=O)[C@H](Cc1ccccc1)NC(=O)[C@@H](NC(=O)CNC(=O)[C@H](CCC(=O)O)NC(=O)C(C)(C)NC(=O)[C@@H](N)Cc1ccc(O)cc1)[C@@H](C)O)[C@@H](C)O)[C@@H](C)CC)[C@@H](C)O)C(C)C)C(=O)N[C@@H](C)C(=O)NCC(=O)NCC(=O)N1CCC[C@H]1C(=O)N[C@@H](CO)C(=O)N[C@@H](CO)C(=O)NCC(=O)N[C@@H](C)C(=O)N1CCC[C@H]1C(=O)N1CCC[C@H]1C(=O)N1CCC[C@H]1C(=O)N[C@@H](CO)C(N)=O [Compound 23] (H-Y[Aib]EGTFTSDYSI[Aib]LDKTAQK([AEEA-AEEA-γGlu-Nonadecanoyl(19-PO3H2)])AFVQWLIAGGPSSGAPPPS-NH2) | 3.12 | 0.4 | 574 | 439 | 2940 | 34.7 | 159 | at least 50% | 5.63 | 0.873 | more than twice an long as compared to tirzepatide
3 | CC[C@H](C)[C@H](NC(=O)[C@H](CC(C)C)NC(=O)[C@H](Cc1c[nH]c2ccccc12)NC(=O)[C@H](CCC(N)=O)NC(=O)[C@@H](NC(=O)[C@H](Cc1ccccc1)NC(=O)[C@H](C)NC(=O)[C@H](CCCCNC(=O)COCCOCCNC(=O)COCCOCCNC(=O)CC[C@H](NC(=O)CCCCCCCCCCCCCCCCCCP(=O)(O)O)C(=O)O)NC(=O)[C@H](CCC(N)=O)NC(=O)[C@H](C)NC(=O)[C@@H](NC(=O)[C@H](CCCCN)NC(=O)[C@H](CC(=O)O)NC(=O)[C@H](CC(C)C)NC(=O)[C@H](Cc1ccccc1)NC(=O)[C@@H](NC(=O)[C@H](CO)NC(=O)[C@H](Cc1ccc(O)cc1)NC(=O)[C@H](CC(=O)O)NC(=O)[C@H](CO)NC(=O)[C@@H](NC(=O)[C@H](Cc1ccccc1)NC(=O)[C@@H](NC(=O)CNC(=O)[C@H](CCC(=O)O)NC(=O)C(C)(C)NC(=O)[C@@H](N)Cc1ccc(O)cc1)[C@@H](C)O)[C@@H](C)O)[C@@H](C)CC)C(C)C)C(C)C)C(=O)N[C@@H](C)C(=O)NCC(=O)NCC(=O)N1CCC[C@H]1C(=O)N[C@@H](CO)C(=O)N[C@@H](CO)C(=O)NCC(=O)N[C@@H](C)C(=O)N1CCC[C@H]1C(=O)N1CCC[C@H]1C(=O)N1CCC[C@H]1C(=O)N[C@@H](CO)C(N)=O [Compound 19] (H-Y[Aib]EGTFTSDYSIFLDKVAQK([AEEA-AEEA-γGlu-Nonadecanoyl(19-PO3H2)])AFVQWLIAGGPSSGAPPPS-NH2) | 1.34 | 0.153 | 175 | 159 | 1240 | 20 | 96.7 | at least 50% | 4.45 | 0.551 | –
4 | CC[C@H](C)[C@H](NC(=O)[C@H](CCCCN)NC(=O)[C@H](CC(=O)O)NC(=O)[C@H](CC(C)C)NC(=O)[C@H](Cc1ccccc1)NC(=O)[C@@H](NC(=O)[C@H](CO)NC(=O)[C@H](Cc1ccc(O)cc1)NC(=O)[C@H](CC(=O)O)NC(=O)[C@H](CO)NC(=O)[C@@H](NC(=O)[C@H](Cc1ccccc1)NC(=O)[C@@H](NC(=O)CNC(=O)[C@H](CCC(=O)O)NC(=O)C(C)(C)NC(=O)[C@@H](N)Cc1ccc(O)cc1)[C@@H](C)O)[C@@H](C)O)[C@@H](C)CC)C(=O)N[C@@H](C)C(=O)N[C@@H](CCC(N)=O)C(=O)N[C@@H](CCCCNC(=O)COCCOCCNC(=O)COCCOCCNC(=O)CC[C@H](NC(=O)CCCCCCCCCCCCCCCCCCP(=O)(O)O)C(=O)O)C(=O)N[C@@H](C)C(=O)N[C@@H](Cc1ccccc1)C(=O)N[C@H](C(=O)N[C@@H](CCC(N)=O)C(=O)N[C@@H](Cc1c[nH]c2ccccc12)C(=O)N[C@@H](CC(C)C)C(=O)N[C@H](C(=O)N[C@@H](C)C(=O)NCC(=O)NCC(=O)N1CCC[C@H]1C(=O)N[C@@H](CO)C(=O)N[C@@H](CO)C(=O)NCC(=O)N[C@@H](C)C(=O)N1CCC[C@H]1C(=O)N1CCC[C@H]1C(=O)N1CCC[C@H]1C(=O)N[C@@H](CO)C(N)=O)[C@@H](C)CC)C(C)C [Compound 18] (H-Y[Aib]EGTFTSDYSIFLDKIAQK([AEEA-AEEA-γGlu-Nonadecanoyl(19-PO3H2)])AFVQWLIAGGPSSGAPPPS-NH2) | 1.52 | 0.166 | 149 | 140 | 1340 | 13.3 | 81.1 | – | 2.85 | 0.659 | –
5 | CC[C@H](C)[C@H](NC(=O)[C@H](CC(C)C)NC(=O)[C@H](Cc1c[nH]c2ccccc12)NC(=O)[C@H](CCC(N)=O)NC(=O)[C@@H](NC(=O)[C@H](Cc1ccccc1)NC(=O)[C@H](C)NC(=O)[C@H](CCC(N)=O)NC(=O)[C@H](CCC(N)=O)NC(=O)[C@H](C)NC(=O)[C@@H](NC(=O)[C@H](CCCCNC(=O)COCCOCCNC(=O)COCCOCCNC(=O)CC[C@H](NC(=O)CCCCCCCCCCCCCCCCCCP(=O)(O)O)C(=O)O)NC(=O)[C@H](CC(=O)O)NC(=O)[C@H](CC(C)C)NC(=O)C(C)(C)NC(=O)[C@@H](NC(=O)[C@H](CO)NC(=O)[C@H](Cc1ccc(O)cc1)NC(=O)[C@H](CC(=O)O)NC(=O)[C@H](CO)NC(=O)[C@@H](NC(=O)[C@H](Cc1ccccc1)NC(=O)[C@@H](NC(=O)CNC(=O)[C@H](CCC(=O)O)NC(=O)C(C)(C)NC(=O)[C@@H](N)Cc1ccc(O)cc1)[C@@H](C)O)[C@@H](C)O)[C@@H](C)CC)[C@@H](C)CC)C(C)C)C(=O)N[C@@H](C)C(=O)NCC(=O)NCC(=O)N1CCC[C@H]1C(=O)N[C@@H](CO)C(=O)N[C@@H](CO)C(=O)NCC(=O)N[C@@H](C)C(=O)N1CCC[C@H]1C(=O)N1CCC[C@H]1C(=O)N1CCC[C@H]1C(=O)N[C@@H](CO)C(N)=O [Compound 15] (H-Y[Aib]EGTFTSDYSI[Aib]LDK([AEEA-AEEA-γGlu-Nonadecanoyl(19-PO3H2)])IAQQAFVQWLIAGGPSSGAPPPS-NH2) | 3.83 | 0.347 | 185 | 182 | 2520 | 9.33 | 60 | – | 0.807 | 0.11 | –
